Measurements taken from article PMC5247654, “Structural Mechanism Underpinning Cross-reactivity of a CD8^+ T-cell Clone That Recognizes a Peptide Derived from Human Telomerase Reverse Transcriptase” (The Journal of Biological Chemistry, 2016).
Where two headings read alike, the source gives them in different places.

Tests used:
[1] = pMHC thermal stability by circular dichroism; format: physicochemical; details: CD thermal denaturation at 218 nm, PBS, ∼3 μM, 0.1-cm cell, two-state trimer-to-monomer fit
Method: Thermal stability of the HLA-A*0201-peptide complexes was assessed by circular dichroism spectroscopy, monitoring the change in ellipticities at 218 nm upon heating as described ([31]). Briefly, samples were prepared in PBS at a concentration of ∼3 μM and measured in 0.1-cm quartz cells. Melting curves were analyzed assuming a two-state trimer-to-monomer transition from the native to unfolded conformation and fitted as described ([43]). As all protein complexes aggregated to various degrees upon unfolding, the ellipticity of the unfolded state was set as a constant of −1.35 M^−1 cm^−1 ([44]).

[2] = target: ILA1 TCR; experiment: Surface plasmon resonance binding of ILA1 TCR to HLA-A*0201-ILA peptide variants; parameters: species or system human; details: 25 °C; for Kd: equilibrium binding, SPR, serial dilutions in duplicate, three independent experiments
Method: Binding analysis was performed in duplicate using a BIAcoreT200^TM equipped with a CM5 sensor chip as described previously ([45]). Approximately 200–500 response units of HLA-A*0201-[…] or HLA-A*0201-[…] peptide complex was attached to the CM5 sensor chip at a slow flow rate of 10 μl/min to ensure uniform distribution on the chip surface. […] For equilibrium analysis, 10 serial dilutions were prepared in duplicate for each sample and injected over the relevant sensor chips at 25 °C. TCR was injected over the chip surface using kinetic injections at a flow rate of 45 μl/min using HLA-A*0201-[…] as a negative control surface on flow cell 1. Results were analyzed using BIAevaluation^TM 3.1, Excel, and Origin 6.0 software. The equilibrium dissociation constant (KD) values were calculated assuming a 1:1 interaction by plotting specific equilibrium binding responses against protein concentrations followed by non-linear least square fitting of the Langmuir binding equation. For kinetics analysis, the kon and koff values were calculated assuming 1:1 Langmuir binding, and the data were analyzed using a global fit algorithm (BIAevaluation 3.1).

[3] = tested on: ILA1 TCR; details: SPR, cited from earlier work; for Kd: equilibrium binding
[4] = target: altered peptide ligand of human telomerase reverse transcriptase 540-548 (A2-ILA8E) peptide on HLA-A*02:01 (human); experiment: SPR, equilibrium binding; kinetics n/m; data from (39); extremely weak against the index A2-ILA ([…] μM); soluble, other
[5] = target: altered peptide ligand of human telomerase reverse transcriptase 540-548 peptide on HLA-A*02:01 (human); experiment: SPR, equilibrium binding; kinetics n/m (too fast to measure); data from (39); soluble, other
[6] = target: altered peptide ligand of human telomerase reverse transcriptase 540-548 peptide on HLA-A*02:01 (human); experiment: SPR, equilibrium binding; data from (17); soluble, other
[7] = target: altered peptide ligand of human telomerase reverse transcriptase 540-548 (A2-ILA8R) peptide on HLA-A*02:01 (human); experiment: SPR, equilibrium binding at 25 °C, new data of this article; kinetics n/m (too fast to measure); much weaker than the index A2-ILA ([…] μM); soluble, other
[8] = target: altered peptide ligand of human telomerase reverse transcriptase 540-548 peptide on HLA-A*02:01 (human); experiment: SPR, equilibrium binding; data from (17); soluble, other; remark: listed apart in the source
[9] = target: human telomerase reverse transcriptase peptide on HLA-A*02:01 (human); experiment: van 't Hoff analysis of SPR affinities at 5-37 °C; soluble, other
[10] = target: altered peptide ligand of human telomerase reverse transcriptase 540-548 (A2-ILA8T) peptide on HLA-A*02:01 (human); experiment: SPR, equilibrium binding; data from (39); soluble, other
[11] = target: altered peptide ligand of human telomerase reverse transcriptase 540-548 peptide on HLA-A*02:01 (human); experiment: SPR, equilibrium binding; kinetics n/m (too fast to measure); data from (39); soluble, other; remark: listed apart in the source
[12] = target: altered peptide ligand of human telomerase reverse transcriptase 540-548 peptide on HLA-A*02:01 (human); experiment: SPR, equilibrium binding; data from (16); soluble, other
[13] = target: altered peptide ligand of human telomerase reverse transcriptase 540-548 (A2-ILA3G8R) peptide on HLA-A*02:01 (human); experiment: SPR, equilibrium binding at 25 °C, new data of this article; soluble, other
[14] = SPR BIAcore T200, ILA1 TCR injected over immobilised pMHC, 1:1 Langmuir global fit

Q: With ILAKFLHRL as the substance, how does the “apparent Tm (melting temperature)” value [1] read?
A: The value was 60.9 °C.

Q: What about the Kd [2] of the same substance?
A: Its Kd is 151 ± 8 µM.

Q: With ILAKYLHWL as the substance, how does the koff [3] read?
A: The koff was 0.32 s⁻¹.

Q: What about the kon [3] of the same substance?
A: The kon was 1300 M⁻¹ s⁻¹.

Q: And the Kd [3]?
A: Its Kd is 242 ± 20 µM.

Q: Which results are given for ILGKFLHTL?
A: koff [3]: 0.05 s⁻¹; kon [3]: 19500 M⁻¹ s⁻¹; Kd [3]: 2.5 ± 0.5 µM; apparent Tm (melting temperature) [1]: 55.6 °C

Q: With ILAKFLHWL as the substance, how does the “apparent Tm (melting temperature)” value [1] read?
A: The value was 54.5 °C.

Q: Which Kd [3] does the source give for ILAKFLHEL here?
A: The Kd was over 500 µM.

Q: What about the “apparent Tm (melting temperature)” value [1] of the same substance?
A: The value was 58.8 °C.

Q: What does the source list for ILA1 TCR?
A: Kd [4]: > 500 µM; Kd [5]: 82 µM; Kd [6]: 242 µM; Kd [7]: 151 µM; Kd [8]: 2.5 µM; TΔS [9]: 5.86 kcal/mol; Kd [10]: 28 µM; Kd [11]: 22.6 µM; Kd [12]: 117 µM; Kd [13]: 1 µM

Q: What does the source list for ILGKFLHWL?
A: koff [3]: 0.05 s⁻¹; kon [3]: 16000 M⁻¹ s⁻¹; Kd [3]: 3.7 ± 0.2 µM; apparent Tm (melting temperature) [1]: 49.8 °C

Q: Which Kd [3] does the source give for ILAKFLHYL here?
A: The Kd was 22.6 ± 2.1 µM.

Q: For ILAKFLYWL, which Kd [3] is on record?
A: Its Kd is 82 ± 8 µM.

Q: Which “apparent Tm (melting temperature)” value [1] does the source give for ILGKFLHRL here?
A: The value was 55.9 °C.

Q: What about the koff [2, 14] of the same substance?
A: Its koff is 0.16 s⁻¹.

Q: And the kon [2, 14]?
A: The kon was 30000 M⁻¹ s⁻¹.

Q: And the Kd [2]?
A: The Kd was 1 ± 0.1 µM.

Q: With ILAKFLHTL as the substance, how does the koff [3] read?
A: The koff was 0.08 s⁻¹.

Q: And the kon [3]?
A: Its kon is 2200 M⁻¹ s⁻¹.

Q: And the Kd [3]?
A: The Kd was 28 ± 5 µM.

Q: And the “apparent Tm (melting temperature)” value [1]?
A: The value was 58.7 °C.

Q: What does the source list for ILALFLHWL?
A: koff [3]: 0.2 s⁻¹; kon [3]: 1700 M⁻¹ s⁻¹; Kd [3]: 117 ± 6 µM
